Reference: ChEMBL document CHEMBL6115025, “Discovery of Novel, Potent, Orally Bioavailable and Efficacious, Hypoxia-Inducible Factor Prolyl Hydroxylase Inhibitors for Hematopoietic Stem Cell Mobilization” (J Med Chem, 2025)
pIC50: −log10 of the molar value.

Tests used:
[1] = target: Voltage-gated inwardly rectifying potassium channel KCNH2 (Homo sapiens, UniProt Q12809); experiment: Inhibition of human ERG upto 100 uM; format: toxicity
Egl nine homolog 1 = Egl nine homolog 1 (Homo sapiens, UniProt Q9GZT9); experiment: Inhibition of PHD2 (unknown origin) using [1-14C]alphaKG as substrate assessed as substrate decarboxylation by measuring 14CO2 production incubated for 2 hrs by microplate reader analysis
Egl nine homolog 1, sequence (Q9GZT9 whole entry): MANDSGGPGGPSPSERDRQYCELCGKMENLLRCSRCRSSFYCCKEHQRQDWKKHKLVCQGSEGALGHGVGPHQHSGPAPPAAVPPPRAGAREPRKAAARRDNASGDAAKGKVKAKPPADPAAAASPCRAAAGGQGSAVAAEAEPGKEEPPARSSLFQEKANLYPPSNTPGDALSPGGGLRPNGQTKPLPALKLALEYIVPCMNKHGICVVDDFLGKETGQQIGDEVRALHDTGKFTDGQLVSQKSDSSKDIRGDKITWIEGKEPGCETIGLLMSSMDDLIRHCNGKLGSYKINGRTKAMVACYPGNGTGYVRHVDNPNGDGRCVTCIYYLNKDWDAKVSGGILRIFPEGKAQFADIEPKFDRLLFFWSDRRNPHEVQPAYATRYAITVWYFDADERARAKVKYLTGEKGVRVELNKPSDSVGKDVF

Voltage-gated inwardly rectifying potassium channel KCNH2, sequence (Q12809 whole entry): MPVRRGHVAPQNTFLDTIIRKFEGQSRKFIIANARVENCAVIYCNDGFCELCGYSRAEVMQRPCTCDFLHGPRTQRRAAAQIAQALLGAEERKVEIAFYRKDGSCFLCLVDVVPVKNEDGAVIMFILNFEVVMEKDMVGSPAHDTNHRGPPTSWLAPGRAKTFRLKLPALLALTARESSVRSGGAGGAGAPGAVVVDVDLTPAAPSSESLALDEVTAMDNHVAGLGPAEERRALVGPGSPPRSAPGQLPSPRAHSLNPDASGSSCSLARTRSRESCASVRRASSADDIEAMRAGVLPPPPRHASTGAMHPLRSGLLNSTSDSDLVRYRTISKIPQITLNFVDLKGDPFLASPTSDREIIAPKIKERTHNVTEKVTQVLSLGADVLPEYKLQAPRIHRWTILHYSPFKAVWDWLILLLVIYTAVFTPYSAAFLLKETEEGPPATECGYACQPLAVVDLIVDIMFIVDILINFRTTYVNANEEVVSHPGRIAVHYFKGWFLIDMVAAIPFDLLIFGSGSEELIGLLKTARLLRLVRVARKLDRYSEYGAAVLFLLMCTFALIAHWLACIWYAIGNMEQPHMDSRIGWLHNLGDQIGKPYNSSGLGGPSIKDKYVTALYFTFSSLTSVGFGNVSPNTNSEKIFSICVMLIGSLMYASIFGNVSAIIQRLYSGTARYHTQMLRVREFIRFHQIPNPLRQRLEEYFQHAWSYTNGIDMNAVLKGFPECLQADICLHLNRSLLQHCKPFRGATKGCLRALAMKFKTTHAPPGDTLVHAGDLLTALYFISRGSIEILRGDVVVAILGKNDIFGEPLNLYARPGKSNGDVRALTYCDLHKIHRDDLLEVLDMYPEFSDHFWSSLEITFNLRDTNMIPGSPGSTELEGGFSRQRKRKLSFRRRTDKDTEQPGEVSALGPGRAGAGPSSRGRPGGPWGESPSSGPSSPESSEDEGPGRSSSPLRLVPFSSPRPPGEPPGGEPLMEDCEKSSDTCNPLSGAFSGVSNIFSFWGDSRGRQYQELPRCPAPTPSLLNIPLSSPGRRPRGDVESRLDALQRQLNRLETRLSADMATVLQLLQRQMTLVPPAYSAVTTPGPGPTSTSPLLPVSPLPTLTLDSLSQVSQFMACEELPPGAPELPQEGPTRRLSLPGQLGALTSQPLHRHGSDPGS

SMILES	inhibition (INH) [1]	pIC50 (Egl nine homolog 1)
O=C(NCc1ccnnc1)c1ncc2c(=O)n(C3CCCCC3)ccc2c1O	Not_active	
O=C(NCc1ccncc1)c1ncc2c(=O)n(Cc3ccccc3)ccc2c1O		6.70
